Target: T1, ERα (Homo sapiens, UniProt P03372)
T1 construct: host or cells: MCF7
T1 sequence (P03372 1-595): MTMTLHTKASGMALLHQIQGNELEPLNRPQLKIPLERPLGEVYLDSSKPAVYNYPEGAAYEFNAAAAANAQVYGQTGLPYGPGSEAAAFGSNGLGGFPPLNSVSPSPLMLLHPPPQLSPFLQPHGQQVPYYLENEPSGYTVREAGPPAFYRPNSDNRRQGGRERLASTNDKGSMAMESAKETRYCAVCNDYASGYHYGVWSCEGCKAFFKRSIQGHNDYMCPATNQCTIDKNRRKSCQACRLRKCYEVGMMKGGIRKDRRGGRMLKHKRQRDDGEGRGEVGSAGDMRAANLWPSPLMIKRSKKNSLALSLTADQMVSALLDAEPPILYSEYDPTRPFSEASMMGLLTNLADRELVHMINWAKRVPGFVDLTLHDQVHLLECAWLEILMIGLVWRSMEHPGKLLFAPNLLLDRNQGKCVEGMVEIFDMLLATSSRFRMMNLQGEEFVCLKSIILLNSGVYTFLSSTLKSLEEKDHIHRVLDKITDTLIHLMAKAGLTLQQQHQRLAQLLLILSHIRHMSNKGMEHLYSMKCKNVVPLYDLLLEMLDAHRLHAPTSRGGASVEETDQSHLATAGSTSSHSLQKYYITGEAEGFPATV
Assay: Estrogen receptor degradation activity: breast cancer cell ERα in cell western assay (MCF7 cells)
Assay type: cell-based
Conditions: for % Degradation At 0.3 μM: 4 hours, relative to fulvestrant 0.1 μM positive control; for DC50: 4 hours post compound addition, concentration which degrades 50% of the estrogen receptor, read-out: Degradation IC50
In short: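 In-cell western readout: ERα immunofluorescence (Alexa 488) normalised to DNA signal (Syto-64) after formalin fixation. Compounds dosed for 4 h on MCF7 cells in stripped-serum, phenol-red-free medium over nine 1:5 steps, 0.3 to […] final; fulvestrant 0.1 μM control. IC50 in nM for 50% ERα degradation.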

Structure (SMILES)	% Degradation At 0.3 μM	DC50
Cc1cc(C=C2CN(CCCF)C2)cc(F)c1C1=C(c2ccc(F)cc2F)CCCc2cc(C(=O)O)ccc21 [Example 31, 8-(2,4-difluorophenyl)-9-(2-fluoro-4-((1-(3-fluoropropyl)azetidin-3-ylidene)methyl)-6-methylphenyl)-6,7-dihydro-5H-benzo[7]annulene-3-carboxylic acid]	92%	0.8 nM
FCCCN1CC(=Cc2ccc(C3=C(c4ccccc4Cl)CCCc4ccccc43)cc2)C1 [Example 120, 3-(4-(8-(2-chlorophenyl)-6,7-dihydro-5H-benzo[7]annulen-9-yl)benzylidene)-1-(3-fluoropropyl)azetidine]	98%	2.68 nM
Cc1cc(F)c(C2=C(c3ccc(C=C4CN(CCCF)C4)cc3)c3ccc(C(=O)O)cc3CCC2)c(F)c1 [Example 51, 8-(2,6-difluoro-4-methylphenyl)-9-(4-((1-(3-fluoropropyl)azetidin-3-ylidene)methyl)phenyl)-6,7-dihydro-5H-benzo[7]annulene-3-carboxylic acid]	95%	0.4 nM
Cc1cccc(C2=C(c3ccc(C=C4CN(CCC(F)F)C4)cc3)c3ccc(C(=O)O)cc3CCC2)c1C(F)(F)F [Example 116, 9-(4-((1-(3,3-difluoropropyl)azetidin-3-ylidene)methyl)phenyl)-8-(3-methyl-2-(trifluoromethyl)phenyl)-6,7-dihydro-5H-benzo[7]annulene-3-carboxylic acid]	90%	0.7 nM
Cc1c(C2=C(c3ccc(C=C4CN(CCC(F)F)C4)cc3)c3ccc(C(=O)O)cc3CCC2)ccc(Cl)c1F [Example 127, 8-(4-chloro-3-fluoro-2-methylphenyl)-9-(4-((1-(3,3-difluoropropyl)azetidin-3-ylidene)methyl)phenyl)-6,7-dihydro-5H-benzo[7]annulene-3-carboxylic acid]	93%	0.6 nM
[2H]C([2H])(CC(F)F)N1CC(=Cc2ccc(C3=C(c4ccc(Cl)cc4Cl)CCCc4cc(C(=O)O)ccc43)cc2)C1 [Example 117, 8-(2,4-dichlorophenyl)-9-(4-((1-(3,3-difluoropropyl-1,1-d2)azetidin-3-ylidene)methyl)phenyl)-6,7-dihydro-5H-benzo[7]annulene-3-carboxylic acid]	90%	0.9 nM
O=C(O)c1ccc2c(c1)CCCC(c1cc(F)cc3c1CCC3)=C2c1ccc(C=C2CN(CCCF)C2)cc1 [Example 4, 8-(6-fluoro-2,3-dihydro-1H-inden-4-yl)-9-(4-((1-(3-fluoropropyl)azetidin-3-ylidene)methyl)phenyl)-6,7-dihydro-5H-benzo[7]annulene-3-carboxylic acid]	86%	0.8 nM
O=C(O)c1ccc2c(c1)CCCC(c1cccc(F)c1C(F)(F)F)=C2c1ccc(C=C2CN(CCC(F)F)C2)cc1 [Example 26, 9-(4-((1-(3,3-difluoropropyl)azetidin-3-ylidene)methyl)phenyl)-8-(3-fluoro-2-(trifluoromethyl)phenyl)-6,7-dihydro-5H-benzo[7]annulene-3-carboxylic acid]	91%	0.4 nM
O=C(O)c1ccc2c(c1)CCCC(c1ccc3c(c1)CC3)=C2c1ccc(C=C2CN(CCCF)C2)cc1 [Example 8, 8-(Bicyclo[4.2.0]octa-1,3,5-trien-3-yl)-9-(4-((1-(3-fluoropropyl)azetidin-3-ylidene)methyl)phenyl)-6,7-dihydro-5H-benzo[7]annulene-3-carboxylic acid]	86%	0.4 nM
O=C(O)c1ccc2c(c1)CCCC(c1cccc3c1CCC3(F)F)=C2c1ccc(C=C2CN(CCCF)C2)cc1 [Example 9, 8-(1,1-difluoro-2,3-dihydro-1H-inden-4-yl)-9-(4-((1-(3-fluoropropyl)azetidin-3-ylidene)methyl)phenyl)-6,7-dihydro-5H-benzo[7]annulene-3-carboxylic acid]	90%	0.6 nM
O=C(O)c1ccc2c(c1)CCCC(c1cccc(Cl)c1)=C2c1ccc(C=C2CN(CCCF)C2)cc1 [Example 180, 8-(3-chlorophenyl)-9-(4-((1-(3-fluoropropyl)azetidin-3-ylidene)methyl)phenyl)-6,7-dihydro-5H-benzo[7]annulene-3-carboxylic acid]	90%	0.5 nM
COc1ccc(C2=C(c3ccc(C=C4CN(CCCF)C4)cc3)c3ccc(C(=O)O)cc3CCC2)c(Cl)c1 [Example 75, 8-(2-chloro-4-methoxyphenyl)-9-(4-((1-(3-fluoropropyl)azetidin-3-ylidene)methyl)phenyl)-6,7-dihydro-5H-benzo[7]annulene-3-carboxylic acid]	92%	1.1 nM
O=C(O)c1ccc2c(c1)CCCC(c1ccc(C3CC3)cc1C(F)(F)F)=C2c1ccc(C=C2CN(CCCF)C2)cc1 [Example 141, 8-(4-cyclopropyl-2-(trifluoromethyl)phenyl)-9-(4-((1-(3-fluoropropyl)azetidin-3-ylidene)methyl)phenyl)-6,7-dihydro-5H-benzo[7]annulene-3-carboxylic acid]	88%	0.4 nM
Cc1ccc(C2=C(c3ccc(C=C4CN(CCCF)C4)cc3)c3ccc(C(=O)O)cc3CCC2)cc1C(F)(F)F [Example 144, 9-(4-((1-(3-fluoropropyl)azetidin-3-ylidene)methyl)phenyl)-8-(4-methyl-3-(trifluoromethyl)phenyl)-6,7-dihydro-5H-benzo[7]annulene-3-carboxylic acid]	90%	0.4 nM
[2H]C([2H])(CCF)N1CC(=Cc2ccc(C3=C(c4ccc(Cl)cc4Cl)CCCc4cc(C(=O)O)ccc43)cc2)C1 [Example 122, 8-(2,4-dichlorophenyl)-9-(4-((1-(3-fluoropropyl-1,1-d2)azetidin-3-ylidene)methyl)phenyl)-6,7-dihydro-5H-benzo[7]annulene-3-carboxylic acid]	94%	0.4 nM
Cc1ccc(C(F)(F)F)c(C2=C(c3ccc(C=C4CN(CCCF)C4)cc3)c3ccc(C(=O)O)cc3CCC2)c1 [Example 119, 9-(4-((1-(3-fluoropropyl)azetidin-3-ylidene)methyl)phenyl)-8-(5-methyl-2-(trifluoromethyl)phenyl)-6,7-dihydro-5H-benzo[7]annulene-3-carboxylic acid]	94%	0.9 nM

These reach a lower DC50. Values come first.

% Degradation At 0.3 μM	DC50	Structure (SMILES)
95%	0.3 nM	Cc1cccc(C2=C(c3ccc(C=C4CN(CCCF)C4)cc3)c3ccc(C(=O)O)cc3CCC2)c1F [Example 48, 8-(2-fluoro-3-methylphenyl)-9-(4-((1-(3-fluoropropyl)azetidin-3-ylidene)methyl)phenyl)-6,7-dihydro-5H-benzo[7]annulene-3-carboxylic acid]
90%	0.3 nM	O=C(O)c1ccc2c(c1)CCCC(c1ccc(C3CC3)cc1F)=C2c1ccc(C=C2CN(CCCF)C2)cc1 [Example 34, 8-(4-cyclopropyl-2-fluorophenyl)-9-(4-((1-(3-fluoropropyl)azetidin-3-ylidene)methyl)phenyl)-6,7-dihydro-5H-benzo[7]annulene-3-carboxylic acid]
90%	0.2 nM	O=C(O)c1ccc2c(c1)CCCC(c1cccc3c1CCC3)=C2c1ccc(C=C2CN(CCCF)C2)cc1 [Example 10, 8-(2,3-dihydro-1H-inden-4-yl)-9-(4-((1-(3-fluoropropyl)azetidin-3-ylidene)methyl)phenyl)-6,7-dihydro-5H-benzo[7]annulene-3-carboxylic acid]
101%	0.2 nM	Cc1cc(C2=C(c3ccc(Cl)cc3Cl)CCCc3cc(C(=O)O)ccc32)cc(F)c1C=C1CN(CCCF)C1.Cl [Example 71, 8-(2,4-dichlorophenyl)-9-(3-fluoro-4-((1-(3-fluoropropyl)azetidin-3-ylidene)methyl)-5-methylphenyl)-6,7-dihydro-5H-benzo[7]annulene-3-carboxylic acid hydrochloride]
88%	0.2 nM	Cc1c(C2=C(c3ccc(C=C4CN(CCCF)C4)cc3)c3ccc(C(=O)O)cc3CCC2)cccc1C(F)(F)F [Example 14]
93%	0.2 nM	Cc1cc(F)cc(C)c1C1=C(c2ccc(C=C3CN(CCCF)C3)cc2)c2ccc(C(=O)O)cc2CCC1 [Example 90, 8-(4-fluoro-2,6-dimethylphenyl)-9-(4-((1-(3-fluoropropyl)azetidin-3-ylidene)methyl)phenyl)-6,7-dihydro-5H-benzo[7]annulene-3-carboxylic acid]
93%	0.1 nM	O=C(O)c1ccc2c(c1)CCCC(c1ccc(C(F)(F)F)cc1Cl)=C2c1ccc(C=C2CN(CCCF)C2)cc1 [Example 50, 8-(2-chloro-4-(trifluoromethyl)phenyl)-9-(4-((1-(3-fluoropropyl)azetidin-3-ylidene)methyl)phenyl)-6,7-dihydro-5H-benzo[7]annulene-3-carboxylic acid]
